{
  "source": "patent US20190328828A1",
  "about": "“PHARMACEUTICAL COMPOSITION, PROCESS FOR PRODUCING THE SAME, USE OF A PEPTIDE, USE OF A PHARMACEUTICAL COMPOSITION AND METHOD FOR TREATING DISEASES ASSOCIATED WITH INTRAOCULAR HYPERTENSION OR GLAUCOMA” (UNIAO QUIMICA FARMACEUTICA NACIONAL S/A, priority 2017, published 2019)",
  "key": {"[1]": {"test": "Long-term and accelerated stability study of raw material", "assay_type": "physicochemical", "description": "Stability is defined as the time during which pharmaceutical expertise or even raw material considered alone is maintained within specified limits and throughout the period of storage and use, the same conditions and characteristics that had upon the time of their manufacture.\nStability study was carried out in two conditions, the condition A being at 5° C.±3° C. with no humidity and condition B 25° C.±2° C. with the relative humidity of 60%±5%."}, "[2]": {"test_system": "rats", "conditions": "free (non-encapsulated) peptide, RVLB microinjection, 25-50 ng, previous studies; cited from earlier work"}, "[3]": {"target": "ACE (Homo sapiens, UniProt P12821)", "sequence (P12821 30-1306, species assumed)": "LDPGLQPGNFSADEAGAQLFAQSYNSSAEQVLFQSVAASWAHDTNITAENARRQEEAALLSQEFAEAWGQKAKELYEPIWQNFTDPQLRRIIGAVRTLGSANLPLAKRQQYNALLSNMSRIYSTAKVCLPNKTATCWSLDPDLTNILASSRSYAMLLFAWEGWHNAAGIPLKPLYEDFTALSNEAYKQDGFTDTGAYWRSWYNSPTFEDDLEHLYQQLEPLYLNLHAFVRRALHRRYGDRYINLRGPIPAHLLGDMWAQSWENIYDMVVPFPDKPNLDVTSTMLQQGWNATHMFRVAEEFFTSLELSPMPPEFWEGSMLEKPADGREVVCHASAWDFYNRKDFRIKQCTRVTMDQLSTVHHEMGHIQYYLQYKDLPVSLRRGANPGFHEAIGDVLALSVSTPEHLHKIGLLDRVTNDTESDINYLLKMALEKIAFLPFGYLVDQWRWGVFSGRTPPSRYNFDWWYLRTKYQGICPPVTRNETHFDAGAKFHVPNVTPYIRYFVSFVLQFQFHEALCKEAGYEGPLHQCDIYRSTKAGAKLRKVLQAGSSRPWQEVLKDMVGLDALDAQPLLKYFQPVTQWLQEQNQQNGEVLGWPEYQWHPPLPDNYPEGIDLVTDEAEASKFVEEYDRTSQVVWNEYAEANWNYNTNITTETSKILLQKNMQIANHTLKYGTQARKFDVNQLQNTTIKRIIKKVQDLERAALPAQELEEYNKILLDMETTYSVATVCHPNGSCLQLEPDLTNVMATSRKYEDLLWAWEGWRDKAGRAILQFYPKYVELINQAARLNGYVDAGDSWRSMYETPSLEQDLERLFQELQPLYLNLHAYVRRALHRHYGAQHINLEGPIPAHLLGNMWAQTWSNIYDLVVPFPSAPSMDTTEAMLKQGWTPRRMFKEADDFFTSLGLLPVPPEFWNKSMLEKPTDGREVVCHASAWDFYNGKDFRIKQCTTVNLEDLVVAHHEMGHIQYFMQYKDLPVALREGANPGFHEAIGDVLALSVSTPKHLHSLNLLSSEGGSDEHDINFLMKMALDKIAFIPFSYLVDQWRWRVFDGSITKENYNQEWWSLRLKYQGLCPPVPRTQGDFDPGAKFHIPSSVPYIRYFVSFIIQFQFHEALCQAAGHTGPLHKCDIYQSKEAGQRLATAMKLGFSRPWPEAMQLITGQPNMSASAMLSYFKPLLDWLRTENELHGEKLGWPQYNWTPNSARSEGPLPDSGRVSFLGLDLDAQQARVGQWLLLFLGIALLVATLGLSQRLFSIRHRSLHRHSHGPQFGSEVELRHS", "conditions": "read-out: IC50 for inhibiting ACE; cited from earlier work"}, "[4]": {"description": "The absorption and biological stability tests were performed with solutions of the peptide-cyclodextrin inclusion compound. To carry out the experiments, 12 normal Wistar rats were used, which had previously cannulated the left femoral artery. […] Four blood draws (1 mL) were carried out, being the first prior to gavage, and the three others within 2, 6 and 24 hours after gavage"}, "[5]": {"test_system": "patients", "conditions": "patients treated chronically; cited from earlier work"}, "[6]": {"test_system": "ganglion cells", "conditions": "rat retina explant model, White et al (2015); cited from earlier work"}},
  "data": [
    {"molecule": "CC[C@H](C)[C@H](NC(=O)[C@H](Cc1ccc(O)cc1)NC(=O)[C@@H](NC(=O)[C@H](CCCNC(=N)N)NC(=O)[C@@H](N)CC(=O)O)C(C)C)C(=O)N[C@@H](Cc1c[nH]cn1)C(=O)N1CCC[C@H]1C(=O)O", "note": "[SEQ ID NO: 1, Asp-Arg-Val-Tyr-Ile-His-Pro]", "values": [
      {"measurement": "time for which the raw material is stable, long-term condition", "setting": "[1]; 5° C.±3° C., no humidity", "value": 36, "unit": "months"},
      {"measurement": "time for which the raw material is stable, accelerated condition", "setting": "[1]; 25° C.±2° C., 60% relative humidity", "value": 6, "unit": "months"},
      {"measurement": "duration of pressor effect", "setting": "[2]", "value": "approximately 10 min"},
      {"measurement": "increase in arterial pressure", "setting": "[2]", "value": 15, "unit": "mmHg"},
      {"measurement": "IC50", "setting": "[3]", "value": "~1", "unit": "µM"},
      {"measurement": "increase in plasma concentration, times less than with SEQ ID NO: 1 βcyclodextrin", "setting": "[4]; 6 hours after gavage", "value": "about 8 times"},
      {"measurement": "level at 6 h", "setting": "[4]; rat, in vivo, po, 10 ug/50 ul", "value": "0.086 ± 0.013", "unit": "ng/mL"}
    ]},
    {"molecule": "CCC[C@H](N[C@@H](C)C(=O)N1[C@H](C(=O)O)C[C@@H]2CCCC[C@@H]21)C(=O)OCC", "note": "[perindopril]", "values": [
      {"measurement": "reduction of the risk of dementia", "setting": "[5]", "value": 34, "unit": "%"}
    ]},
    {"molecule": "Angiotensin II", "values": [
      {"measurement": "reduction of survival of ganglion cells", "setting": "[6]", "value": 40, "unit": "%"}
    ]},
    {"molecule": "CCOC(=O)[C@H](CCc1ccccc1)N[C@@H](C)C(=O)N1CCC[C@H]1C(=O)O", "note": "[enalapril]", "values": [
      {"measurement": "reduction of the risk of dementia", "setting": "[5]", "value": 55, "unit": "%"}
    ]},
    {"molecule": "CCCCC1=NC2(CCCC2)C(=O)N1Cc1ccc(-c2ccccc2-c2nnn[nH]2)cc1", "note": "[irbesartan]", "values": [
      {"measurement": "survival of ganglion cells", "setting": "[6]", "value": "doubled"}
    ]}
  ]
}
